One test concerns the target T1, human cathepsin F (Homo sapiens, UniProt Q9UBX1).
T1 sequence (Q9UBX1 271-484): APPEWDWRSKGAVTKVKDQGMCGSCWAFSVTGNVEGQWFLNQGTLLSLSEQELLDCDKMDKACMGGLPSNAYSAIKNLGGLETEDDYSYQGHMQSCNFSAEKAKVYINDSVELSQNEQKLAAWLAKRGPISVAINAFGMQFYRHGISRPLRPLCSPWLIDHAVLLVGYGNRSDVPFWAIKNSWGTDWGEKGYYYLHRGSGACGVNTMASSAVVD
As to the kind of experiment: Cathepsin F assay (hCat F). In kind it is biochemical. The note with it: Z-Phe-Arg-AMC substrate, pH 5.5, 15 min preincubation; read-out: hCat F (IP (nM)). The essentials: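 Enzyme (10 nM) was preincubated 15 min at room temperature with compounds (1/3 DMSO dilution series, 500–0.025 μM) in 50 mM MES pH 5.5, 2.5 mM EDTA, 2.5 mM DTT, 10% DMSO. Z-Phe-Arg-AMC (8 μM) was added and AMC fluorescence (Ex 360/Em 460 nm) followed for 20 min. % inhibition was fitted to dose-response curves.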

The target in another test is human cathepsin K (UniProt P43236). Kind of test: Cathepsin K Assay (hrbCat K). The format is biochemical. The note with it: Z-Leu-Arg-AMC substrate, pH 5.5, 15 min preincubation; read-out: hrbCat K (IP (nM)). In a few lines:
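Human cathepsin K (0.4 nM) was preincubated 15 min at room temperature with compound in 50 mM MES pH 5.5, 2.5 mM EDTA, 2.5 mM DTT and 10% DMSO. Inhibition was fitted to a dose-response model.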

Each structure is given as a SMILES string.

As to `N#CC1(NC(=O)[C@@H]2CCCC[C@H]2c2nc(C3(c4ccc(F)cc4)CC3)sc2-c2ccc(N3CCS(=O)(=O)CC3)cc2)CC1` [Example 184, (1R,2R)-N-(1-cyanocyclopropyl)-2-(5-(4-(1,1-dioxidothiomorpho-lino)phenyl)-2-(1-(4-fluorophenyl)cyclo-propyl)thiazol-4-yl)cyclohexane-carboxamide], the IC50 on human cathepsin F is 1580 nM; at human cathepsin K, 5.2 nM.

For `N#CC1(NC(=O)[C@@H]2CCCC[C@H]2c2nc(Oc3ccc(F)cc3)sc2-c2ccc(N3CCS(=O)(=O)CC3)cc2)CC1` [Example 189, (1R,2R)-N-(1-cyanocyclopropyl)-2-(5-(4-(1,1-dioxidothiomorpho-lino)phenyl)-2-(4-fluorophenoxy)thia-zol-4-yl)cyclohexane-carboxamide], the IC50 at human cathepsin F was found to be 788 nM; on human cathepsin K, 5.1 nM.

As to `N#CC1(NC(=O)[C@@H]2CCCC[C@H]2c2nc(N)sc2-c2ccc(N3CCS(=O)(=O)CC3)cc2)CC1` [Example 190, (1R,2R)-2-(2-amino-5-(4-(1,1-dioxidothiomorpho-lino)phenyl)thiazol-4-yl)-N-(1-cyanocyclopropyl) cyclohexanecarbox-amide], the IC50 at human cathepsin F stood at 7410 nM; at human cathepsin K, 13.2 nM.

Consider `Cc1ccc(-c2nc([C@@H]3CC[C@H](F)C[C@H]3C(=O)N[C@@H](C)C#N)c(-c3ccc(N4CCS(=O)(=O)CC4)cc3)s2)nn1` [Example 195, (1R,2R,5S)-N-((S)-1-cyanoethyl)-2-(5-(4-(1,1-dioxidothiomorpho-lino)phenyl)-2-(6-methylpyridazin-3-yl)thiazol-4-yl)-5-fluorocyclohexane-carboxamide], for which the results for the IC50 at human cathepsin F and at human cathepsin K were 1940 nM and 1.4 nM, respectively.

On to `Cc1ccc(-c2nc([C@@H]3CC[C@H](F)C[C@H]3C(=O)NC3(C#N)CC3)c(-c3ccc(N4CCS(=O)(=O)CC4)cc3)s2)nn1` [Example 196, (1R,2R,5S)-N-(1-cyanocyclopropyl)-2-(5-(4-(1,1-dioxidothiomorpho-lino)phenyl)-2-(6-methylpyridazin-3-yl)thiazol-4-yl)-5-fluorocyclohexane-carboxamide], for which the values for the IC50 at human cathepsin F and on human cathepsin K were 2020 nM and 2.4 nM, respectively.

As for `N#CC1(NC(=O)[C@@H]2C[C@@H](F)CC[C@H]2c2nc(-c3ccc(C(F)(F)F)nn3)sc2-c2ccc(N3CCS(=O)(=O)CC3)cc2)CC1` [Example 197, (1R,2R,5S)-N-(1-cyanocyclopropyl)-2-(5-(4-(1,1-dioxidothiomorpho-lino)phenyl)-2-(6-(trifluoromethyl)pyridazin-3-yl)thiazol-4-yl)-5-fluorocyclohexane-carboxamide], the results for the IC50 at human cathepsin F and on human cathepsin K were at least 10000 nM and 512 nM, respectively.

For `N#CC1(NC(=O)[C@@H]2CCCC[C@H]2c2nc(Oc3ccc(F)cc3F)sc2-c2ccc(N3CCS(=O)(=O)CC3)cc2)CC1` [Example 198, (1R,2R)-N-(1-cyanocyclopropyl)-2-(2-(2,4-difluorophenoxy)-5-(4-(1,1-dioxidothiomorpho-lino)phenyl)thiazol-4-yl)cyclohexane-carboxamide], the IC50 was found to be 1020 nM at human cathepsin F and 4.2 nM on human cathepsin K.

For the compound `CC(C)S(=O)(=O)c1ccc(-c2sc(-c3cncc(F)c3)nc2[C@@H]2CCCC[C@H]2C(=O)NC2(C#N)CC2)cc1` [Example 199, (1R,2R)-N-(1-cyanocyclopropyl)-2-(2-(5-fluoropyridin-3-yl)-5-(4-(isopropylsulfonyl)phenyl)thiazol-4-yl)cyclohexane-carboxamide], the values for the IC50 on human cathepsin F and at human cathepsin K were 846 nM and 25.8 nM, respectively.

Turning to `N#CC1(NC(=O)[C@@H]2CCCC[C@H]2c2nc(NS(=O)(=O)c3ccccc3)sc2-c2ccc(N3CCS(=O)(=O)CC3)cc2)CC1` [Example 200, (1R,2R)-N-(1-cyanocyclopropyl)-2-(5-(4-(1,1-dioxidothiomorpho-lino)phenyl)-2-(phenylsulfonamido)thiazol-4-yl)cyclohexane-carboxamide], the IC50 on human cathepsin F is at least 10000 nM; at human cathepsin K, 116 nM.

`CN(c1nc([C@@H]2CCCC[C@H]2C(=O)NC2(C#N)CC2)c(-c2ccc(N3CCS(=O)(=O)CC3)cc2)s1)S(=O)(=O)c1ccccc1` [Example 201, (1R,2R)-N-(1-cyanocyclopropyl)-2-(5-(4-(1,1-dioxidothiomorpho-lino)phenyl)-2-(N-methylphenylsulfon-amido)thiazol-4-yl)cyclohexane-carboxamide]: the IC50 on human cathepsin F was 712 nM; at human cathepsin K, 1.2 nM.

In the case of `N#CC1(NC(=O)[C@@H]2CCC(Cl)(Cl)C[C@H]2c2nc(-c3ccc(F)cn3)sc2-c2ccc(N3CCS(=O)(=O)CC3)cc2)CC1` [Example 204, (1R,2R)-4,4-dichloro-N-(1-cyanocyclopropyl)-2-(5-(4-(1,1-dioxidothiomorpho-lino)phenyl)-2-(5-fluoropyridin-2-yl)thiazol-4-yl)cyclohexane-carboxamide], the figures for the IC50 on human cathepsin F and on human cathepsin K were 3330 nM and 88.2 nM, respectively.

In the case of `Cc1nc([C@@H]2CC[C@H](F)C[C@H]2C(=O)NC2(C#N)CC2)c(-c2ccc(N3CCS(=O)(=O)CC3)cc2)s1` [Example 205, (1R,2R,5S)-N-(1-cyanocyclopropyl)-2-(5-(4-(1,1-dioxidothiomorpho-lino)phenyl)-2-methylthiazol-4-yl)-5-fluorocyclohexane-carboxamide], the IC50 was at least 10000 nM at human cathepsin F and 6.4 nM on human cathepsin K.

Regarding `Cc1nc([C@@H]2CC[C@H](F)C[C@H]2C(=O)N[C@@H](C)C#N)c(-c2ccc(N3CCS(=O)(=O)CC3)cc2)s1` [Example 206, (1R,2R,5S)-N-((S)-1-cyanoethyl)-2-(5-(4-(1,1-dioxidothiomorpho-lino)phenyl)-2-methylthiazol-4-yl)-5-fluorocyclohexane-carboxamide], the IC50 at human cathepsin F was determined as 9010 nM; at human cathepsin K it was 5 nM.

As to `C[C@@H](C#N)NC(=O)[C@@H]1C[C@@H](F)CC[C@H]1c1nc(C(C)(C)C)sc1-c1ccc(N2CCS(=O)(=O)CC2)cc1` [Example 207, (1R,2R,5S)-2-(2-(tert-butyl)-5-(4-(1,1-dioxidothiomorpho-lino)phenyl)thiazol-4-yl)-N-((S)-1-cyanoethyl)-5-fluorocyclohexane-carboxamide], the IC50 on human cathepsin F was found to be 2570 nM; on human cathepsin K it was 1.6 nM.

Turning to `CC(C)(O)c1nc([C@@H]2CCCC[C@H]2C(=O)NC2(C#N)CC2)c(-c2ccc(N3CCS(=O)(=O)CC3)cc2)s1` [Example 208, (1R,2R)-N-(1-cyanocyclopropyl)-2-(5-(4-(1,1-dioxidothiomorpho-lino)phenyl)-2-(2-hydroxypropan-2-yl)thiazol-4-yl)cyclohexane-carboxamide], the IC50 at human cathepsin F is at least 10000 nM; at human cathepsin K, 7.9 nM.

As for `CC(C)[C@@H](C#N)NC(=O)[C@@H]1C[C@@H](F)CC[C@H]1c1nc(-c2cncc(F)c2)sc1-c1ccc(N2CCS(=O)(=O)CC2)cc1` [Example 209, (1R,2R,5S)-N-((S)-1-cyano-2-methylpropyl)-2-(5-(4-(1,1-dioxidothiomorpho-lino)phenyl)-2-(5-fluoropyridin-3-yl)thiazol-4-yl)-5-fluorocyclohexane-carboxamide], the figures for the IC50 at human cathepsin F and on human cathepsin K were 1000 nM and 1.5 nM, respectively.

As for `Cc1nc([C@@H]2CC[C@H](F)C[C@H]2C(=O)N[C@H](C#N)C(C)C)c(-c2ccc(N3CCS(=O)(=O)CC3)cc2)s1` [Example 210, (1R,2R,5S)-N-((S)-1-cyano-2-methylpropyl)-2-(5-(4-(1,1-dioxidothiomorpho-lino)phenyl)-2-methylthiazol-4-yl)-5-fluorocyclohexane-carboxamide], the IC50 at human cathepsin F stood at 9900 nM; on human cathepsin K, 11.4 nM.

On to `N#CC1(NC(=O)[C@@H]2CCCC[C@H]2c2nc(-c3ccc(F)cn3)sc2-c2ccc(N3CCS(=O)(=O)CC3)cc2)COC1` [Example 211, (1R,2R)-N-(3-cyanooxetan-3-yl)-2-(5-(4-(1,1-dioxidothiomorpho-lino)phenyl)-2-(5-fluoropyridin-2-yl)thiazol-4-yl)cyclohexane-carboxamide], for which the results for the IC50 on human cathepsin F and at human cathepsin K were 289 nM and 1.7 nM, respectively.

For the compound `C[C@@H](C#N)NC(=O)[C@@H]1C[C@@H](F)CC[C@H]1c1nc(C2CC(F)(F)C2)sc1-c1ccc(N2CCS(=O)(=O)CC2)cc1` [Example 212, (1R,2R,5S)-N-((S)-1-cyanoethyl)-2-(2-(3,3-difluorocyclobutyl)-5-(4-(1,1-dioxidothiomorpho-lino)phenyl)thiazol-4-yl)-5-fluorocyclohexane-carboxamide], the IC50 on human cathepsin F is 6700 nM; on human cathepsin K it was 4.2 nM.

With `CC(C)[C@@H](C#N)NC(=O)[C@@H]1C[C@@H](F)CC[C@H]1c1nc(C2CC(F)(F)C2)sc1-c1ccc(N2CCS(=O)(=O)CC2)cc1` [Example 213], the IC50 is at least 10000 nM on human cathepsin F and 7.8 nM on human cathepsin K.

Take `Cc1ccc(-c2nc([C@@H]3CC[C@H](F)C[C@H]3C(=O)NC3(C#N)CC3)c(-c3ccc(N4CCOCC4)cc3)s2)nn1` [Example 216, (1R,2R,5S)-N-(1-cyanocyclopropyl)-5-fluoro-2-(2-(6-methylpyridazin-3-yl)-5-(4-morpholinophenyl)thiazol-4-yl)cyclohexane-carboxamide]: the IC50 turned out to be 2480 nM on human cathepsin F and 7.1 nM on human cathepsin K.

Values taken from patent US9573913B2, “Cathepsin cysteine protease inhibitors” (Merck Sharp & Dohme Corp., priority 2013, dated 2017).
